In patent US11739077B2, “Small molecule inhibitors of ubiquitin specific protease 1 (USP1) and uses thereof” (Insilico Medicine IP Limited, priority 2021, dated 2023) one finds IC50 data, which are given here for 16 compounds.

The target in experiment [1] is Human recombinant USP1/UAF1 (Homo sapiens (Human), UniProt O94782). Nature of the experiment: Enzymatic assay, USP1/UAF1 with Ubiquitin Rhodamine 110. Conditions: 2 nM USP1/UAF1, 500 nM Ubiquitin Rhodamine 110, 15 minutes preincubation at RT. The experiment is classed as biochemical. How it is done: Human recombinant USP1/UAF1 expressed in baculovirus infected Sf21 cells were used (R&D, E-568-050). Test compound and/or vehicle was incubated with 2 nM of USP1/UAF1 in modified HEPES buffer pH 8.0 for 15 minutes at RT. The reaction was initiated by addition of 500 nM of Ubiquitin Rhodamine 110 (R&D, U-555-050) for kinetic reading. Slope change of fluorescence intensity was read spectrofluorimetrically at 485 nm/535 nm.
Sequence of Human recombinant USP1/UAF1 (O94782 whole entry): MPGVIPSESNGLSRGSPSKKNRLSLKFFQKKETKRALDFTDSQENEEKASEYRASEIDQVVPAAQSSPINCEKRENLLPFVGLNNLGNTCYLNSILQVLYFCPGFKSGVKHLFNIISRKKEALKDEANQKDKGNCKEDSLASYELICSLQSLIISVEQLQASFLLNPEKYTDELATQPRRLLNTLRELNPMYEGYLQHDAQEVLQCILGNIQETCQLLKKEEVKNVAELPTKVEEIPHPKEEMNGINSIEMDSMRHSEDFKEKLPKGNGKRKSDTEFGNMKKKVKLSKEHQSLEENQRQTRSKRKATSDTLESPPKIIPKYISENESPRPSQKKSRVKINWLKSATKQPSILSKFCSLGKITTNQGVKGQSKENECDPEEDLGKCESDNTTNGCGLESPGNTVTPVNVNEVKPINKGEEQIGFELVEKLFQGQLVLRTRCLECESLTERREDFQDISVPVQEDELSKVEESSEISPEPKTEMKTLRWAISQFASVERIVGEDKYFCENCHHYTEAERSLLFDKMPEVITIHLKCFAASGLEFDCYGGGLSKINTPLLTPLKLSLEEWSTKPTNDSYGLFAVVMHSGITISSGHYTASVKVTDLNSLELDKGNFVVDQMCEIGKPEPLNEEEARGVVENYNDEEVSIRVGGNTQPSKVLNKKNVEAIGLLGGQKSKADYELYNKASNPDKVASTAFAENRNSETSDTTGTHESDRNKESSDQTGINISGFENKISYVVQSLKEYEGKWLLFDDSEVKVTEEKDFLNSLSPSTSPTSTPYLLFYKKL
Sequence of Human recombinant USP1/UAF1 (Q8TAF3 whole entry partner): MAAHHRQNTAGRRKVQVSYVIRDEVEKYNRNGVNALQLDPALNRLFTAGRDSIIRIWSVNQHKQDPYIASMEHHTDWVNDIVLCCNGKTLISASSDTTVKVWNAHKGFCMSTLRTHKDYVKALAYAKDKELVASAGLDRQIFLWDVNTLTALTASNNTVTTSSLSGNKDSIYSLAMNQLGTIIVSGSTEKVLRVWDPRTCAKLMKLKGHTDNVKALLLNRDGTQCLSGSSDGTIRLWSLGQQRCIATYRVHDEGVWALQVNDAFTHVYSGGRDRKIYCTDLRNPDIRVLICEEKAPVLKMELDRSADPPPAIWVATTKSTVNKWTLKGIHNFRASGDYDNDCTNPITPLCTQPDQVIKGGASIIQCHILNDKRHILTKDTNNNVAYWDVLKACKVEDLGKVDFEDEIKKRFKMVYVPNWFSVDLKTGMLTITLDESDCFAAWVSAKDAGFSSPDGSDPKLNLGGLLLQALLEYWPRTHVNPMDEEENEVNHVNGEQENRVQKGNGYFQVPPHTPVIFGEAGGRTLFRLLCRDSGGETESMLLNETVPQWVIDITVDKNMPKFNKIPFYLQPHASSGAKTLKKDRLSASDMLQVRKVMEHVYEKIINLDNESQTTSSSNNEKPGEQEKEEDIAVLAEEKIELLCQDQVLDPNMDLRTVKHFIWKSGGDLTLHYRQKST

For the next experiment, the system named is MDA-MB-436 cells. Nature of the experiment: MDA-MB-436 breast cancer cell proliferation assay (CellTiter-Glo). The experiment is classed as cell-based. Conditions: Homo sapiens, 168 h, 7 days. The protocol: MDA-MB-436 cells were grown in Leibovitz's L-15 medium with 10 ug/ml insulin, 16 ug/ml glutathione, 10% FBS. Cells were passaged at subconfluence after trypsinization and maintained in incubators at 37° C. in a humidified atmosphere with 5% CO2.
Cell proliferation was determined using CellTiter-Glo® Luminescent Cell Viability Assay (Promega, #G7573). MDA-MB-436 cells were seeded in 384-well plates and allowed to attach for 24 h. Compounds were added into 384-well plate by ECHO, and incubated at 37° C. in a humidified atmosphere with 5% CO2. After 7 days, CellTiter-Glo was added into 384 well plates, contents were mixed on an orbital shaker at […] for 2 min before centrifuging the plate for 2 min at 1000 rpm. After incubation at RT for 30 min, luminescence was read on envision.
A general note: In ATP-based viability assays light output follows the ATP content of the culture.

In general, IC50 refers to the concentration at which inhibition is half-maximal. As for `[2H]C([2H])([2H])n1nc(-c2c(OC)ncnc2C2CC2)c2c1CCN(c1ccc(-c3nc(C(F)(F)F)cn3C)cc1)C2` [Example 17, 3-(4-cyclopropyl-6-methoxypyrimidin-5-yl)-1-(methyl-d3)-5-(4-(1-methyl-4-(trifluoromethyl)-1H-imidazol-2-yl)phenyl)-4,5,6,7-tetrahydro-1H-pyrazolo[4,3-c]pyridine], the IC50 (in experiment [1]; with MDA-MB-436 cells) was below 0.05 µM in each case.
Take `Cn1cc(C(F)(F)F)nc1-c1ccc(N2CCc3c(c(-c4cccnc4OC(F)F)nn3C)C2)cc1` [Example 24, 3-(2-(difluoromethoxy)pyridin-3-yl)-1-methyl-5-(4-(1-methyl-4-(trifluoromethyl)-1H-imidazol-2-yl)phenyl)-4,5,6,7-tetrahydro-1H-pyrazolo[4,3-c]pyridine]: the IC50 in experiment [1] was below 0.05 µM; with MDA-MB-436 cells, 0.05 to 1 µM.
Consider `COc1ncnc(C2CC2)c1-c1nn(C)c2c1CN(c1ccc(-c3nc(C(F)(F)F)cn3C(C)C)cn1)CC2` [Example 10, 3-(4-cyclopropyl-6-methoxypyrimidin-5-yl)-5-(5-(1-isopropyl-4-(trifluoromethyl)-1H-imidazol-2-yl)pyridin-2-yl)-1-methyl-4,5,6,7-tetrahydro-1H-pyrazolo[4,3-c]pyridine], for which the IC50 (in experiment [1]; in the experiment with MDA-MB-436 cells) was below 0.05 µM in each case.
Turning to `COc1ncnc(C2CC2)c1-c1nn(C)c2c1CN(c1ccc(-c3nc(C(F)(F)F)cn3C)cn1)CC2` [Example 5, 3-(4-cyclopropyl-6-methoxypyrimidin-5-yl)-1-methyl-5-(5-(1-methyl-4-(trifluoromethyl)-1H-imidazol-2-yl)pyridin-2-yl)-4,5,6,7-tetrahydro-1H-pyrazolo[4,3-c]pyridine], the half-inhibitory concentration (IC50) (in experiment [1]; in the experiment with MDA-MB-436 cells) was below 0.05 µM in each case.
`COc1ncnc(C2CC2)c1-c1nn(C)c2c1CN(c1ccc(-c3nc(C(F)(F)F)cn3C)cc1F)CC2` [Example 7, 3-(4-cyclopropyl-6-methoxypyrimidin-5-yl)-5-(2-fluoro-4-(1-methyl-4-(trifluoromethyl)-1H-imidazol-2-yl)phenyl)-1-methyl-4,5,6,7-tetrahydro-1H-pyrazolo[4,3-c]pyridine]: the IC50 (in experiment [1]; with MDA-MB-436 cells) was below 0.05 µM throughout.
On to `[2H]C([2H])([2H])n1nc(-c2c(OC)ncnc2C2CC2)c2c1CCN(c1ccc(-c3nc(C(F)(F)F)cn3C(C)C)cn1)C2` [Example 11, 3-(4-cyclopropyl-6-methoxypyrimidin-5-yl)-5-(5-(1-isopropyl-4-(trifluoromethyl)-1H-imidazol-2-yl)pyridin-2-yl)-1-(methyl-d3)-4,5,6,7-tetrahydro-1H-pyrazolo[4,3-c]pyridine], for which the IC50 (in experiment [1]; with MDA-MB-436 cells) was below 0.05 µM each time.
As for `COc1ncnc(C2CC2)c1-c1nn(C(F)F)c2c1CN(c1ccc(-c3nc(C(F)(F)F)cn3C(C)C)cn1)CC2` [Example 32, 3-(4-cyclopropyl-6-methoxypyrimidin-5-yl)-1-(difluoromethyl)-5-(5-(1-isopropyl-4-(trifluoromethyl)-1H-imidazol-2-yl)pyridin-2-yl)-4,5,6,7-tetrahydro-1H-pyrazolo[4,3-c]pyridine], the half-maximal inhibitory concentration (IC50) in experiment [1] is below 0.05 µM; in the experiment with MDA-MB-436 cells it was 0.05 to 1 µM.
Regarding `CC(C)c1ncncc1-c1nn(C)c2c1CN(c1ccc(-c3nc(C(F)(F)F)cn3C)cc1)CC2` [Example 2, 3-(4-isopropylpyrimidin-5-yl)-1-methyl-5-(4-(1-methyl-4-(trifluoromethyl)-1H-imidazol-2-yl)phenyl)-4,5,6,7-tetrahydro-1H-pyrazolo[4,3-c]pyridine], the IC50 (in experiment [1]; with MDA-MB-436 cells) was 0.05 to 1 µM in each case.
With `COc1ncnc(C2CC2)c1-c1nn(C)c2c1CN(c1cnc(-c3nc(C(F)(F)F)cn3C)nc1)CC2` [Example 26, 3-(4-cyclopropyl-6-methoxypyrimidin-5-yl)-1-methyl-5-(2-(1-methyl-4-(trifluoromethyl)-1H-imidazol-2-yl)pyrimidin-5-yl)-4,5,6,7-tetrahydro-1H-pyrazolo[4,3-c]pyridine], the IC50 (in experiment [1]; in the experiment on MDA-MB-436 cells) was 0.05 to 1 µM in each case.
Turning to `COc1ncnc(C2CC2)c1-c1nn(C(F)F)c2c1CN(c1ccc(-c3nc(C(F)(F)F)cn3C)cn1)CC2` [Example 31, 3-(4-cyclopropyl-6-methoxypyrimidin-5-yl)-1-(difluoromethyl)-5-(5-(1-methyl-4-(trifluoromethyl)-1H-imidazol-2-yl)pyridin-2-yl)-4,5,6,7-tetrahydro-1H-pyrazolo[4,3-c]pyridine], the figures for the IC50 (in experiment [1]; in the experiment on MDA-MB-436 cells) were below 0.05 µM and 0.05 to 1 µM, respectively.
The like results for `[2H]C([2H])([2H])n1nc(-c2c(OC)ncnc2C2CC2)c2c1CCN(c1ccc(-c3nc(C(F)(F)F)cn3C(C)C)cc1)C2` [Example 4, 3-(4-cyclopropyl-6-methoxypyrimidin-5-yl)-5-(4-(1-isopropyl-4-(trifluoromethyl)-1H-imidazol-2-yl)phenyl)-1-(methyl-d3)-4,5,6,7-tetrahydro-1H-pyrazolo[4,3-c]pyridine] were, in that order, below 0.05 µM and below 0.05 µM.
The like results for `COc1ncnc(C2CC2)c1-c1n[nH]c2c1CN(c1ccc(-c3nc(C(F)(F)F)cn3C(C)C)cn1)CC2` [Example 20, 3-(4-cyclopropyl-6-methoxypyrimidin-5-yl)-5-(5-(1-isopropyl-4-(trifluoromethyl)-1H-imidazol-2-yl)pyridin-2-yl)-4,5,6,7-tetrahydro-1H-pyrazolo[4,3-c]pyridine] were, in that order, 0.05 to 1 µM and 0.05 to 1 µM.
In the same order, the values of `Cc1ncnc(C2CC2)c1-c1nn(C)c2c1CN(c1ccc(-c3nc(C(F)(F)F)cn3C)cn1)CC2` [Example 13, 3-(4-cyclopropyl-6-methylpyrimidin-5-yl)-1-methyl-5-(5-(1-methyl-4-(trifluoromethyl)-1H-imidazol-2-yl)pyridin-2-yl)-4,5,6,7-tetrahydro-1H-pyrazolo[4,3-c]pyridine] are 0.05 to 1 µM and 0.05 to 1 µM.
Take `COc1ncnc(C2CC2)c1-c1nn(C)c2c1CN(c1ccc(-c3nc(C(F)(F)F)cn3C)nc1)CC2` [Example 6, 3-(4-cyclopropyl-6-methoxypyrimidin-5-yl)-1-methyl-5-(6-(1-methyl-4-(trifluoromethyl)-1H-imidazol-2-yl)pyridin-3-yl)-4,5,6,7-tetrahydro-1H-pyrazolo[4,3-c]pyridine]: the IC50 (in experiment [1]; in the experiment on MDA-MB-436 cells) was below 0.05 µM throughout.
As to `COc1ncnc(C2CC2)c1-c1nn(C)c2c1CN(c1ccc(-c3nc(C(F)(F)F)cn3C)nn1)CC2` [Example 29, 3-(4-cyclopropyl-6-methoxypyrimidin-5-yl)-1-methyl-5-(6-(1-methyl-4-(trifluoromethyl)-1H-imidazol-2-yl)pyridazin-3-yl)-4,5,6,7-tetrahydro-1H-pyrazolo[4,3-c]pyridine], the IC50 (in experiment [1]; in the experiment with MDA-MB-436 cells) was 0.05 to 1 µM each time.
Turning to `COc1ncnc(C2CC2)c1-c1nn(C)c2c1CN(c1ccc(-c3nc(C(F)(F)F)cn3C)cc1)CC2` [Example 3, 3-(4-cyclopropyl-6-methoxypyrimidin-5-yl)-1-methyl-5-(4-(1-methyl-4-(trifluoromethyl)-1H-imidazol-2-yl)phenyl)-4,5,6,7-tetrahydro-1H-pyrazolo[4,3-c]pyridine], the half-inhibitory concentration (IC50) (in experiment [1]; in the experiment with MDA-MB-436 cells) was below 0.05 µM throughout.
